Where two headings read alike, the source gives them in different places.
Experiments:
[1] = Single-dose pharmacokinetics in rats; format: in vivo; conditions: for clearance / bioavailability: male, Sprague-Dawley, rat, plasma; for clearance: intravenous; for bioavailability: po
Description: Serial blood samples were collected for all studies from the jugular vein at various time points post dose (0.17 (or 0.25 for oral), 0.5, 0.75, 1, 2, 4, 6, 8 and 24 h, for example). Plasma samples were analyzed by LC-MS/MS.
Additional studies evaluating suspensions of crystalline drug substance in aqueous medium were performed as described above.

Human PXR = target: T1, Human PXR (Homo sapiens, UniProt O75469); experiment: PXR transactivation assay (HepG2, CYP3A-Luc reporter); format: cell-based; conditions: reported as EC60
T1 construct: expressed in transfected cells; host or cells: HepG2
T1 sequence (O75469 1-434): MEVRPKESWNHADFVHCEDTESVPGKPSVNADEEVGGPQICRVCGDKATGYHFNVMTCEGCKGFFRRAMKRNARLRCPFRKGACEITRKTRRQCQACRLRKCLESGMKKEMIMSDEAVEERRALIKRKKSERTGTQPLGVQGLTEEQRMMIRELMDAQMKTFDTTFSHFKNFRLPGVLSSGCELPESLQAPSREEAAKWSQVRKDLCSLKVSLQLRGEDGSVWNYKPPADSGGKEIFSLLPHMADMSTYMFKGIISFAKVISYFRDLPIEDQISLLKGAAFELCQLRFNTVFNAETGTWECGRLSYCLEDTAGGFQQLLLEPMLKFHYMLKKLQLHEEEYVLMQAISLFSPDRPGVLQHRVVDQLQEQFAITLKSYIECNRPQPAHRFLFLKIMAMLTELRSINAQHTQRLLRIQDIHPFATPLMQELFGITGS
Description: The cell culture medium used is DMEM. […] Charcoal/dextran treated fetal bovine serum (FBS) was purchased from Hyclone (Logan, Utah). HepG2 cells were obtained from ATCC (Manassas, Va.). Human PXR-pcDNA3 and luciferase reporter containing CYP3A4 promoter, CYP3A-Luc, were generated at Bristol-Myers Squibb. White tissue culture (TC)-surface 384-well plates were purchased from Perkin Elmer (Boston, Mass.). Luciferase substrate (Steady-Glo) was purchased from Promega (Madison, Wis.). Control compounds rifampicin, mifepristone, and sulfinpyrazone were purchased from Sigma (St. Louis, Mo.).
Culture of HepG2 cells is performed in T175 flasks using DMEM containing 10% FBS. The transfection mixture contains 1 μg/mL of PXR-pcDNA3 plasmid DNA, 20 μg/ml of Cyp3A-Luc plasmid DNA, 90 μL/mL of Lipofectamine 2000, and serum-free medium. After incubating at room temperature for 20 minutes, the transfection mixture (1 ml per flask) is applied to the cells in fresh medium (20 mL per flask), and flasks incubated at 37° C. (5% CO2) overnight.
The flasks are then tapped vigorously to break up cell aggregates. After the addition of 8 mL of DMEM containing 5% charcoal/dextran-treated FBS, the entire mixture is transferred to conical tubes. Cells are then centrifuged at 1000 rpm for 5 minutes. Cell pellets are resuspended to a final count of ˜7×10^6 cells/mL in freezing media (DMEM containing 20% serum and 10% DMSO). The cell suspension is aliquoted into 15-mL polypropylene tubes, 5 mL per tube. Cells are slowly frozen by placing in a Styrofoam-insulated container at −80° C. overnight. Vials are transferred to an Ultracold (−140° C.) freezer after 24 hours for long-term storage.
Vials of cryopreserved cells are thawed rapidly in a warm water bath for five minutes. Cells are pooled and diluted to 50 mL in a 50-mL conical vial. The thawed cells are centrifuged at 1500 rpm for 5 minutes to collect the cells and the supernatant discarded. Cells are then resuspended in fresh Media II (DMEM containing 5% charcoal/dextran-treated FBS, 1% Penicillin/Streptomycin, 100 μM Non-essential Amino Acids, 1 mM Sodium Pyruvate, and 2 mM L-Glutamine), counted using the Guava Cell Counter, and diluted to 1.6×10^5 cells/ml in the same media.
Fifty microliters of cell mixture is added to wells in columns 1-23 of white tissue-culture treated 384-well plates containing 0.25 μL of test compound dissolved in 100% DMSO. Fifty microliters of Media II is added to wells in column 24. The plates are incubated at 37° C. (5% CO2) for 24 hours, then 5 μL of Alamar Blue reagent (Trek Diagnostics, Cat #00-100) is added to each well. Plates are then incubated an additional two hours at 37° C., 5% CO2 and then one hour at room temperature. […] After the fluorescence is measured, 25 μL of luciferase substrate (Steady-Glo, Promega) is added to each well. The plates are incubated for fifteen minutes at room temperature, after which the luminescence is read on a PheraStar (BMG Labtech) plate reader.
Rifampicin (10 μM), a well-known agonist of PXR, is included in each plate as an internal standard and positive control. The data is then expressed as percent control (% CTRL), where the control signal is the signal from the 10 μM rifampicin and the blank signal is that from the DMSO vehicle. % CTRL=((Compound signal−Blank signal)/(Control signal−Blank signal))*100
The EC50 is defined as the concentration corresponding to half of the maximal response derived from the fitted 20-point curve as determined using a four-parameter logistic regression model. Additionally, compounds may also be reported as EC20 or EC60.

[2] = Human liver microsomal metabolism, Assay Conditions A; format: in vitro ADME; conditions: 0.5 μM compound, 10 minutes, 37° C.
Description: Test compound is received as a 3.5 mM stock solution in 100 percent DMSO. Compound is diluted to create a 50 μM acetonitrile (ACN) solution containing 1.4% DMSO, which is then used as a 100× stock for incubation with microsomes. Each compound is tested in duplicate separately in each of three species in the Metabolic Stability-Human, Rat, and Mouse assay suite or as individual species in the Metabolic Stability-Dog or Metabolic Stability-Monkey suites. Compound, NADPH and liver microsome solutions are combined for incubation in three steps:
152 μL of liver microsome suspension, protein concentration of 1.1 mg/mL in 100 mM NaPi, pH 7.4, 6.6 mM MgCl2 buffer, is pre-warmed at 37° C.
• 1) 1.7 μL of 50 μM compound (98.6% ACN, 1.4% DMSO) is added to the same tube and pre-incubated at 37° C. for 5 minutes. • 2) The reaction is initiated by the addition of 17 μL of pre-warmed 10 mM NADPH solution in 100 mM NaPi, pH 7.4. • 3) Reaction components are mixed well, and 75 μL are immediately transferred into 150 μl quench/stop solution (zero-time point, To). Reactions are incubated at 37° C. for 10 minutes and then an additional 75 μL aliquot is transferred into 150 μL quench solution. Acetonitrile containing 100 μM DMN (a UV standard for injection quality control), is used as the quench solution to terminate metabolic reactions. • 4) Quenched mixtures are centrifuged at 1500 rpm (˜500×g) in an Allegra X-12 centrifuge, SX4750 rotor (Beckman Coulter Inc., Fullerton, Calif.) for fifteen minutes to pellet denatured microsomes. A volume of 90 μL of supernatant extract, containing the mixture of parent compound and its metabolites, is then transferred to a separate 96-well plate for UV-LC/MS-MS analysis to determine the percent of parent compound that is remaining in the mixture.

[3] = Human liver microsomal metabolism, Assay Conditions B; format: in vitro ADME; conditions: 3 μM compound, 10 minutes, 37° C.
Description: Test compound is received as 20 mM in DMSO. Compound is diluted to create a 300 μM acetonitrile (ACN) solution containing 1.5% DMSO, which is then used as a 100× stock for incubation with microsomes. Each compound is tested in duplicate separately in each of three species in the Metabolic Stability-Human, Rat, Mouse assay suite or individual species in the Metabolic Stability-Dog or Metabolic Stability-Monkey suites. Compound, NADPH and liver microsome solutions are combined for incubation in three steps: • 1. 450 μL of liver microsome suspension, protein concentration of 1 mg/mL in 100 mM NaPi, pH 7.4, 6.6 mM MgCl2 buffer, are pre-warmed at 37° C. • 2. […] of 300 μM compound (98.5% CAN, 1.5% DMSO) is added to the same tube. • 3. The reaction is initiated by the addition of 50 μL of pre-warmed 5 mM NADPH solution in 100 mM NaPi, pH 7.4.
Reaction components are mixed well and 150 μL removed to quench/stop solution immediately for the zero-minute time point. Reactions are incubated at 37° C. for 10 minutes and then an additional 150 μL removed from incubation. Aliquots removed are combined with 300 μL ACN which contains 100 μM DMN as a UV standard for detection.
Quenched mixtures are centrifuged at 1500 rpm (˜500×g) in an Allegra X-12 centrifuge, SX4750 rotor (Beckman Coulter Inc., Fullerton, Calif.) for fifteen minutes to pellet denatured microsomes. A volume of 110 μl of supernatant extract, containing the mixture of parent compound and its metabolites, is then transferred to a separate 96-well plate for UV-LC/MS-MS analysis to determine the percent of parent compound that is remaining in the mixture.

[4] = Single-dose pharmacokinetics in dogs; format: in vivo
Description: Serial blood samples were collected for all studies at various time points post dose (0.17 (or 0.25 for oral), 0.5, 0.75, 1, 2, 4, 6, 8 and 24 h, for example). Plasma samples were analyzed by LC-MS/MS.

[5] = Electrocardiography in anesthetized rabbits (rabbit in vivo EP effect)
Description: A dose-response study of test compound was conducted in anesthetized rabbits to assess the cardiac electrophysiologic profile established in the cellular ion channel assays.
Experiments were performed in propofol-fentanyl anesthetized closed-chest male rabbits. A body surface electrocardiogram (ECG) and an intra-cardiac His-bundle electrogram were continuously monitored and recorded during the studies, using a PoNeMah system and a Prucka electrophysiological recording system, respectively. Test compound was prepared on the day of study in a vehicle of PEG400:ethanol:water (1:1:1) at a dosing concentration of 30 mg/mL. Test compound (n=3) or vehicle (n=3) was given intravenously over 5 minutes via an infusion pump at incremental doses of 3, 10 and 30 mg/kg. The interval between doses was 10 minutes, allowing for a 5-minute test agent infusion and a 5-minute rest period. Blood was sampled at baseline (pre-drug infusion) and immediately at the end of each infusion. For the 30 mg/kg dose, additional blood samples were taken at 10, 20 and 30 minutes after the end of infusion.
PR interval, QRS duration and QT interval were averaged from a 1 minute ECG recording period at time of blood sampling. QT interval was corrected for heart rate effects using both Fridericia (QTcf) and Van der Water (QTcv) formulae. AH and HV intervals, representing A-V node conduction and His-Purkinje conduction, respectively, were assessed by manual measurements from the His-bundle electrogram. Data were expressed as percent change from pre-drug baseline (mean±SEM) for PR, QRS, AH and HV intervals as well as delta change from the pre-drug infusion baseline (mean±SEM) for QTc intervals. Changes of 10% in PR, QRS, and AH intervals, and 20% in HV interval, as well as >10 ms in QTc interval are considered significant based on experience with the model.

[6] = target: T2, human cardiac sodium channel, SCNSA (Homo sapiens, UniProt Q14524); experiment: Sodium channel whole-cell patch-clamp assay; format: cell-based; conditions: HEK293, HEK-293, protein-free buffer, read-out: Na channel, % inh
T2 construct: expressed in transfected cells; host or cells: HEK-293
T2 sequence (Q14524 whole entry): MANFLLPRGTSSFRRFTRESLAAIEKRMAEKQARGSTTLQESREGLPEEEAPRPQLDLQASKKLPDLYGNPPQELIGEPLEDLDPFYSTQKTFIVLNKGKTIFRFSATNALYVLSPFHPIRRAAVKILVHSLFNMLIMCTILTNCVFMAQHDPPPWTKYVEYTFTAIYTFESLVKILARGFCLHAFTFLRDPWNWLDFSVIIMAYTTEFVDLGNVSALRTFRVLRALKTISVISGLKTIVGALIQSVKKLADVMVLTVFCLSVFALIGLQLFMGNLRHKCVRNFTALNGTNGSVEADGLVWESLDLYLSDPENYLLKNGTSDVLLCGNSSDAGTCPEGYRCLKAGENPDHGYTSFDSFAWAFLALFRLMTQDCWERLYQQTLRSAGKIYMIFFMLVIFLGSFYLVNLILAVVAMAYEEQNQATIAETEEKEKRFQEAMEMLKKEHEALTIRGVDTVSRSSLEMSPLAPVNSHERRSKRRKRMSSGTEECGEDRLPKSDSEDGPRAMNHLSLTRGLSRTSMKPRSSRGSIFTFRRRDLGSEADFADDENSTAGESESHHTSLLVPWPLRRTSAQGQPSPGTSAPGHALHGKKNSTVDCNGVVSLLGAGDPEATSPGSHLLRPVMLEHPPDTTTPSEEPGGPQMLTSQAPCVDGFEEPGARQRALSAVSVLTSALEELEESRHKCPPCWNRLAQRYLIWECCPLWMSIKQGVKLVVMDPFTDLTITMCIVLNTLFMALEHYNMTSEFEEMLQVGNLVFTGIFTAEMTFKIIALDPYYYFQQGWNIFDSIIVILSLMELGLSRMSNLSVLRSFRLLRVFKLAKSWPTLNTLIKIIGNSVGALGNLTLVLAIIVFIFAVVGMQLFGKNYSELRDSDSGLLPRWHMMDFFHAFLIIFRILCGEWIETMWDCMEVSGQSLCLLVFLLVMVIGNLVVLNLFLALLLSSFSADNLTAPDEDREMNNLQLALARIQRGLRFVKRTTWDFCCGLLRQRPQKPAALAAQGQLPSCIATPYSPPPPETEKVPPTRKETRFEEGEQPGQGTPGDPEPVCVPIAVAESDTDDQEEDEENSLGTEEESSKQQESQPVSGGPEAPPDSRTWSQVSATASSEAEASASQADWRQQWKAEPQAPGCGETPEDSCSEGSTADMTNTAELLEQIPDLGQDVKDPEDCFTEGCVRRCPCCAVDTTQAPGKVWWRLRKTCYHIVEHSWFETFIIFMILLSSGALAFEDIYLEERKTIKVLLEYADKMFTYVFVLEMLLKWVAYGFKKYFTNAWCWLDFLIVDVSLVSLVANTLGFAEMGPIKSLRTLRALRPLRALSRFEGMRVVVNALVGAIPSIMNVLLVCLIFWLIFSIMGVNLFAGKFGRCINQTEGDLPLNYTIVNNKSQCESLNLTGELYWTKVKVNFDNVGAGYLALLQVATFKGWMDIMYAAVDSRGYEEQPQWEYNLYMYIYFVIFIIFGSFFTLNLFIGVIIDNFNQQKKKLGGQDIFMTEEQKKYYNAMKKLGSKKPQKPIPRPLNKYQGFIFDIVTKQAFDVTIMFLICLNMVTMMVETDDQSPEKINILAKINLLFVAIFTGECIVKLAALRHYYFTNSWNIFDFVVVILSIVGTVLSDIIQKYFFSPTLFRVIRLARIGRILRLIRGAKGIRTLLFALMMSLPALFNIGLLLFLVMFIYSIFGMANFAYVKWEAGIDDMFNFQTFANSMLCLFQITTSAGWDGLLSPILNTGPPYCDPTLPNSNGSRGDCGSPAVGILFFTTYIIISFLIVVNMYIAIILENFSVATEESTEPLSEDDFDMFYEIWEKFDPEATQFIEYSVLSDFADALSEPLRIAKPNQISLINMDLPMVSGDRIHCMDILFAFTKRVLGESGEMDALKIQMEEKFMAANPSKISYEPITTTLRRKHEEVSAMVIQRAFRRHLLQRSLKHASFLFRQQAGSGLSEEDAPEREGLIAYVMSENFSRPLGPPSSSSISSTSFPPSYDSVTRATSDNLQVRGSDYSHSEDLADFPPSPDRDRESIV
Description: Whole-cell patch-clamp was used to directly measure inward sodium currents in HEK-293 cells expressing the human cardiac sodium channel, SCNSA. After reach steady-state effect in the presence of drug, rate-dependence was assessed by stimulation at frequencies of 1 Hz and 4 Hz. Experiments were carried out using an aqueous buffer at pH 7.4 and at room temperature. There is no protein in the buffer and drug concentrations reported are nominal free drug levels. Test article was evaluated up to 10 μM (protein-free buffer). […] Data is reported as percent inhibition at a fixed concentration.

[7] = oral solution, read-out: Rat oral bioavailability when dosed as solution

| Structure (SMILES) | clearance [1] [mL/min/kg] | PXR EC60 (Human PXR) | Human Liver Microsomal Metabolism % remaining (Assay Conditions A) [2] | Human Liver Microsomal Metabolism % remaining (Assay Conditions B) [3] | further results |
| --- | --- | --- | --- | --- | --- |
| CC(C)[C@@H](NC(=O)c1cccc(C(=O)O)c1)C(=O)N1CC[C@](O)(c2ccc(Cl)cc2)C(C)(C)C1 [Example 463] | 75 | – | – | – | bioavailability [1, 7]: 9% |
| CC(C)CC(=O)N[C@@H](C(=O)N1CC[C@](O)(c2ccc(Cl)cc2)C(C)(C)C1)C(C)C [Example 466] | – | 1.12 (EC60) μM | 67% | 33% | – |
| CC(C)NC(=O)N[C@@H](C(=O)N1CC[C@](O)(c2ccc(Cl)cc2)C(C)(C)C1)C(C)C [Example 850] | – | 10.2 (EC60) μM | 99% (A) | – | – |
| CC(C)[C@@H](NC(=O)C1CCCC1)C(=O)N1CC[C@](O)(c2ccc(Cl)cc2)C(C)(C)C1 [Example 460] | 10 | – | 47% | 16% | bioavailability [1, 7]: 8% |
| CC[C@@H](C)NC(=O)N[C@@H](C(=O)N1CC[C@](O)(c2ccc(Cl)cc2)C(C)(C)C1)C(C)C [Example 897] | – | >50 (EC60) μM | 59% (A) | – | – |
| CC(C)[C@@H](NC(=O)[C@@H]1CC[C@@H](O)C1)C(=O)N1CC[C@](O)(c2ccc(Cl)cc2)C(C)(C)C1 [Example 572] | 29 | – | – | – | clearance ([4]; male, beagle, dog, plasma, intravenous): 4.9 mL/min/kg; dog oral bioavailability when dosed as solution ([4]; oral solution): 72; Cmax: Free drug (at NOEL dose) ([5]; at NOEL dose, free drug): < 6.3 µM; Cmax: Free drug (at QT effect dose) ([5]; at QT effect dose, free drug): 6.3 µM; QT effect Dose ([5]; i.v. infusion 3, 10, 30 mg/kg): 10 mg/kg; QTcf, delta ([5]; i.v. infusion, change from pre-drug baseline): +22 ms; inhibition at 10 µM [6]: 25%; bioavailability ([1]; crystalline suspension in aqueous medium, read-out: Relative bioavailability when dosed as a crystalline suspension): > 90%; Rat oral bioavailability when dosed as solution ([1]; oral solution): 37% |
| CC(C)[C@@H](NC(=O)CC(C)(C)O)C(=O)N1CC[C@](O)(c2ccc(Cl)cc2)C(C)(C)C1 [Example 1356] | – | – | 100% (A)/100% (B) | 100% (A)/100% (B) | – |

Reference: US8642622B2, “Piperidinyl compound as a modulator of chemokine receptor activity” (Bristol-Myers Squibb Company, priority 2010, dated 2014)
